Where “and” joins values, the source holds several entries; their conditions need not be identical. Equal entries are not always repeated. Where two headings read alike, the source gives them in different places.
Assay: Phase 1b study in RYR1-Related Myopathy patients, plasma pharmacokinetics
Format: in vivo, human (RYR1-Related Myopathy patients)
Conditions: for Ctrough_D13 / concentration at 13 day: Day 13 trough; for concentration at 13 day: read-out: Ctrough_D13
Method: A Phase 1b study is performed in RYR1-Related Myopathy (RYR1-RM) affected individuals. Compound I was administered in a gastro-resistant tablet according to Example 3 at daily doses. The formulation comprised 20 mg Compound I (based on the mass of 4-[(7-methoxy-2,3-dihydro-1,4-benzothiazepin-4(5H)yl)methyl]benzoic acid). The first three participants were dosed with 120 mg of Compound I (6×20 mg tablets) daily for approximately 28 days. The second group was dosed with 200 mg of Compound I (10×20 mg tablets daily for approximately 28 days. Bloods for PK assessments were at baseline (Day 0, 24h PK), at the study mid-point (day 14±2 days, trough PK), and at the final study visit (day 28, 24h PK). Pharmacokinetic analysis was performed on plasma samples. PK parameters are set forth below: [table]

[1] = 120 mg oral daily for 28 days, Day 28, n 3, Max
[2] = 120 mg oral daily for 28 days, Day 28, n 3, Median
[3] = 120 mg oral daily for 28 days, Day 28, n 3, Min
[4] = 120 mg oral daily for 28 days, Day 28, n 3, arithmetic mean
[5] = 120 mg oral daily for 28 days, Day 28, n 3, geometric mean
[6] = human, plasma, po, 120 mg, 120 mg oral daily for 28 days, Day 28, n 3, arithmetic mean
[7] = human, plasma, po, 120 mg, 120 mg oral daily for 28 days, Day 28, n 3, geometric mean
[8] = human, plasma, po, 200 mg, 200 mg oral daily for 28 days, three subjects
[9] = human, plasma, po, 200 mg, single oral 200 mg, three subjects
[10] = single oral 120 mg, Day 1, three subjects, Max
[11] = single oral 120 mg, Day 1, three subjects, Median
[12] = single oral 120 mg, Day 1, three subjects, Min
[13] = single oral 120 mg, Day 1, three subjects, arithmetic mean
[14] = single oral 120 mg, Day 1, three subjects, geometric mean

COc1ccc2c(c1)CN(Cc1ccc(C(=O)O)cc1)CCS2.O=C(O)/C=C/C(=O)O [Compound I, 4-[(7-methoxy-2,3-dihydro-1,4-benzothiazepin-4(5H)yl)methyl]benzoic acid hemifumarate]
AUC0-tau [1]: 287 µg·h/mL
Cmax, ss [1]: 21300 ng/mL
Cmin [1]: 7760 ng/mL
Tmax, ss [1]: 6.00 h
Tmin [1]: 24.00 h
Cmin [2]: 7020 ng/mL
Tmin [2]: 24.000 h
AUC0-tau [3]: 243 µg·h/mL
Cmax, ss [3]: 16900 ng/mL
Cmin [3]: 5800 ng/mL
Tmin [3]: 1.00 h
Cmin [4]: 6860 ng/mL
Tmin [4]: 16.333 h
Cmin [5]: 6811 ng/mL
Tmin [5]: 8.320 h
RA_AUC (120 mg oral daily, AUCtau Day 28/AUC0-24 Day 1, n 3, Max): 1.64
RA_AUC (120 mg oral daily, AUCtau Day 28/AUC0-24 Day 1, n 3, Median): 1.618
RA_AUC (120 mg oral daily, AUCtau Day 28/AUC0-24 Day 1, n 3, Min): 1,50
RA_AUC (120 mg oral daily, AUCtau Day 28/AUC0-24 Day 1, n 3, arithmetic mean): 1.587
RA_Cmax (120 mg oral daily, Cmax Day 28/Cmax Day 1, n 3, Max): 1.72
RA_Cmax (120 mg oral daily, Cmax Day 28/Cmax Day 1, n 3, Median): 1.523
RA_Cmax (120 mg oral daily, Cmax Day 28/Cmax Day 1, n 3, Min): 1.21
RA_Cmax (120 mg oral daily, Cmax Day 28/Cmax Day 1, n 3, arithmetic mean): 1.485
Ctrough_D13 (120 mg oral daily, n 3, Median): 8040 ng/mL
Ctrough_D13 (120 mg oral daily, n 3, Min): 6710 ng/mL
Ctrough_D13 (120 mg oral daily, n 3, geometric mean): 7970 ng/mL
Time of Cmin, individual values (120 mg oral daily, Day 28, 1 for 1 subject, 24 for two subjects): 1 h and 24 h
Tmax,ss, individual values (120 mg oral daily, Day 28, 4 for two participants, 6 for the third subject): 6 h
AUC (human, plasma, po, 120 mg, 120 mg oral daily for 28 days, Day 28, n 3, Median, read-out: AUC0-tau): 285 µg·h/mL
Cmax (human, plasma, po, 120 mg, 120 mg oral daily for 28 days, Day 28, n 3, Median, read-out: Cmax, ss): 19800 ng/mL
Tmax (human, plasma, po, 120 mg, 120 mg oral daily for 28 days, Day 28, n 3, Median, read-out: Tmax): 4 h
Cmax at 28 days [6]: 19300 ng/mL
Tmax at 28 days [6]: 4.67 h
AUC (human, plasma, po, 120 mg, 120 mg oral daily for 28 days, Day 28, n 3, arithmetic mean, read-out: AUC0-tau): 272 µg·h/mL
Cmax at 28 days [7]: 19200 ng/mL
Tmax at 28 days [7]: 4.58 h
AUC (human, plasma, po, 120 mg, 120 mg oral daily for 28 days, Day 28, n 3, geometric mean, read-out: AUC0-tau): ~271 µg·h/mL
Cmax (human, plasma, po, 120 mg, 120 mg oral daily for 28 days, Day 28, n 3, geometric mean, read-out: Cmax, ss): ~19200 ng/mL
concentration at 13 day (human, plasma, po, 120 mg, 120 mg oral daily, n 3, Max): 9400 ng/mL
concentration at 13 day (human, plasma, po, 120 mg, 120 mg oral daily, n 3, arithmetic mean): 8050 ng/mL
concentration at 13 day (human, plasma, po, 120 mg, 120 mg oral daily, n 3, geometric mean): 7970 ng/mL
Tmax (human, plasma, po, 120 mg, 120 mg oral daily, Day 28, 4 for two participants, 6 for the third subject, read-out: Tmax,ss, individual values): 4 h
AUC (human, plasma, po, 120 mg, 120 mg oral daily, Day 28, read-out: AUC0-tau, individual values): 243 to 287 µg·h/mL
Cmax (human, plasma, po, 120 mg, 120 mg oral daily, Day 28, read-out: Cmax,ss, individual values): 16900 to 21300 ng/mL
concentration at 28 day (human, plasma, po, 120 mg, 120 mg oral daily, Day 28, read-out: Cmin, individual values): 5800 to 7760 ng/mL
AUC(0-t) (human, plasma, po, 120 mg, single oral 120 mg, Day 1, three subjects, Median, read-out: AUC0-24): 175 µg·h/mL
AUC(0-inf) (human, plasma, po, 120 mg, single oral 120 mg, Day 1, three subjects, Median, read-out: AUC0-inf): 274 µg·h/mL
AUC(0-t) (human, plasma, po, 120 mg, single oral 120 mg, Day 1, three subjects, Median, read-out: AUC0-t): 175 µg·h/mL
Cmax (human, plasma, po, 120 mg, single oral 120 mg, Day 1, three subjects, Median, read-out: Cmax): 12400 ng/mL
Tmax (human, plasma, po, 120 mg, single oral 120 mg, Day 1, three subjects, Median, read-out: Tmax): 3 h
half-life (human, plasma, po, 120 mg, single oral 120 mg, Day 1, three subjects, Median, read-out: t½ (converted)): 14.4 h
AUC(0-t) (human, plasma, po, 120 mg, single oral 120 mg, Day 1, three subjects, arithmetic mean, read-out: AUC0-24): 172 µg·h/mL
AUC(0-inf) (human, plasma, po, 120 mg, single oral 120 mg, Day 1, three subjects, arithmetic mean, read-out: AUC0-inf): 259 µg·h/mL
AUC(0-t) (human, plasma, po, 120 mg, single oral 120 mg, Day 1, three subjects, arithmetic mean, read-out: AUC0-t): 172 µg·h/mL
Cmax (human, plasma, po, 120 mg, single oral 120 mg, Day 1, three subjects, arithmetic mean, read-out: Cmax): 13300 ng/mL
Tmax (human, plasma, po, 120 mg, single oral 120 mg, Day 1, three subjects, arithmetic mean, read-out: Tmax): 3 h
half-life (human, plasma, po, 120 mg, single oral 120 mg, Day 1, three subjects, arithmetic mean, read-out: t½ (converted)): 14.1 h
AUC(0-t) (human, plasma, po, 120 mg, single oral 120 mg, Day 1, three subjects, geometric mean, read-out: AUC0-24): 171 µg·h/mL
AUC(0-inf) (human, plasma, po, 120 mg, single oral 120 mg, Day 1, three subjects, geometric mean, read-out: AUC0-inf): 257 µg·h/mL
AUC(0-t) (human, plasma, po, 120 mg, single oral 120 mg, Day 1, three subjects, geometric mean, read-out: AUC0-t): 171 µg·h/mL
Cmax (human, plasma, po, 120 mg, single oral 120 mg, Day 1, three subjects, geometric mean, read-out: Cmax): ~13100 ng/mL
Tmax (human, plasma, po, 120 mg, single oral 120 mg, Day 1, three subjects, geometric mean, read-out: Tmax): 3 h
half-life (human, plasma, po, 120 mg, single oral 120 mg, Day 1, three subjects, geometric mean, read-out: t½ (converted)): 14.1 h
AUC(0-inf) (human, plasma, po, 120 mg, single oral 120 mg, Day 1, read-out: AUC0-inf, individual values): 212 to 290 µg·h/mL
AUC(0-t) (human, plasma, po, 120 mg, single oral 120 mg, Day 1, read-out: AUC0-t, individual values): 150 to 190 µg·h/mL
Cmax (human, plasma, po, 120 mg, single oral 120 mg, Day 1, read-out: Cmax, individual values): 11100 to 16300 ng/mL
Tmax (human, plasma, po, 120 mg, single oral 120 mg, Day 1, read-out: TMax, all participants): 3 h
half-life (human, plasma, po, 120 mg, single oral 120 mg, Day 1, read-out: half-life, individual values (converted)): 12.8 h
concentration at 0 h [8]: 7450 ng/mL
concentration at 0.5 h [8]: 8190 ng/mL
concentration at 1 h [8]: 7900 ng/mL
concentration at 2 hr (human, plasma, po, 200 mg, 200 mg oral daily for 28 days, three subjects, time 2 hr): 8830 ng/mL
concentration at 3 h [8]: 13500 ng/mL
concentration at 4 h [8]: 15100 ng/mL
concentration at 5 h [8]: 17800 ng/mL
concentration at 6 h [8]: 20000 ng/mL
concentration at 8 h [8]: 18300 ng/mL
concentration at 12 h [8]: 15400 ng/mL
concentration at 24 h [8]: 8550 ng/mL
Tmax (human, plasma, po, 200 mg, 200 mg oral daily for 28 days, read-out: Tmax, all participants): 5 to 6 h
concentration at 0 h [9]: 0 ng/mL
concentration at 0.5 h [9]: 0 ng/mL
concentration at 1 h [9]: 0 ng/mL
concentration at 2 h (human, plasma, po, 200 mg, single oral 200 mg, three subjects, time 2 hr): 176 ng/mL
concentration at 3 h [9]: 1110 ng/mL
concentration at 4 h [9]: 14300 ng/mL
concentration at 5 h [9]: 17600 ng/mL
concentration at 6 h [9]: 15900 ng/mL
concentration at 8 h [9]: 13400 ng/mL
concentration at 12 h [9]: 10000 ng/mL
concentration at 24 h [9]: 5520 ng/mL
Tmax (human, plasma, po, 200 mg, single oral 200 mg, read-out: TMax, all participants): 5 to 6 h
half-life, individual values (single oral 120 mg, Day 1): 15.28 h and 14.40 h
AUC0-24 [10]: 190 µg·h/mL
AUC % extrap [10]: 36.4%
AUC(0-inf) [10]: 290 µg·h/mL
AUC(0-t) [10]: 190 µg·h/mL
Cmax [10]: 16300 ng/mL
Kel [10]: 0.0544 h⁻¹
Tlag [10]: 0.50 h
t½ [10]: 15.28 h
AUC % extrap [11]: 34.33%
Kel [11]: 0.04813 h⁻¹
Tlag [11]: 0.000 h
AUC0-24 [12]: 150 µg·h/mL
AUC % extrap [12]: 29.4%
AUC(0-inf) [12]: 212 µg·h/mL
AUC(0-t) [12]: 150 µg·h/mL
Cmax [12]: 11100 ng/mL
Kel [12]: 0.0454 h⁻¹
Tlag [12]: 0.00 h
t½ [12]: 12.75 h
AUC % extrap [13]: 33.36%
Kel [13]: 0.04929 h⁻¹
Tlag [13]: 0.167 h
t½ [13]: 14.142 h
AUC % extrap [14]: 33.23%
AUC(0-inf) [14]: 256.6 µg·h/mL
AUC(0-t) [14]: 170.8 µg·h/mL
Kel [14]: 0.04915 h⁻¹
